Experimental data from ChEMBL document CHEMBL3217619, “Design and synthesis of trans-2-substituted-cyclopropane-1-carboxylic acids as the first non-natural small molecule inhibitors of O-acetylserine sulfhydrylase” (Medchemcomm, 2012).
pIC50, pKd: −log10 of the molar value.

Key:
[1] = Binding affinity to Haemophilus influenzae OASS-A expressed in Escherichia coli assessed as dissociation constant by fluorometric analysis
[2] = Competitive inhibition of Haemophilus influenzae OASS-A expressed in Escherichia coli using OAS/TNB as substrate by ping-pong analysis
[3] = Binding affinity to Haemophilus influenzae OASS-A expressed in Escherichia coli using OAS/TNB as substrate assessed as dissociation constant
[4] = Inhibition of Haemophilus influenzae OASS-A expressed in Escherichia coli using OAS/TNB as substrate by spectrophotometric analysis

CCOC(=O)[C@H]1C[C@@H]1C(=O)O (racemic)
pKd [1]: 3.12

CCOC(=O)[C@H]1C[C@H]1C(=O)O (racemic)
pKd [1]: 2.33

CC(C)OC(=O)[C@H]1C[C@@H]1C(=O)O (racemic)
pKd [1]: 3.29

CC(C)COC(=O)[C@H]1C[C@@H]1C(=O)O (racemic)
pKd [1]: 3.02

CCOC[C@H]1C[C@@H]1C(=O)O (racemic)
pKd [1]: 5.28

CCCOC[C@H]1C[C@@H]1C(=O)O (racemic)
pKd [1]: 5.19

C/C=C/[C@H]1C[C@@H]1C(=O)O (racemic)
pIC50 [2]: 3.22
pKd [3]: 3.70
pIC50 [4]: 3.15
pKd [1]: 5.84

CC/C=C/[C@H]1C[C@@H]1C(=O)O (racemic)
pKd [1]: 4.67
